Measured values published in patent publication USRE38200E1, “Indole-2,3-dione-3-oxime derivatives” (NeuroSearch A/S, priority 1996, dated 2003).
Where a name gives a salt, the structure may show the parent alone.

Columns and labels:
[1] = target: AMPA receptor; assay: 3H-AMPA binding (in vitro receptor affinity test); design: species or system rat; conditions: cerebral cortex membranes from male Wistar rats; 3H-AMPA 5 nM; 30 minutes at 2° C.; read-out: IC50 (concentration of the test substance which inhibits the specific binding of 3H-AMPA by 50%)
Excerpt: In an in vitro activity (receptor affinity) test, the chemical compounds of the present invention have been tested for their affinity for the AMPA receptor.
L-glutamate (GLU) is the major excitatory neurotransmitter in the mammalian central nervous system. From electro-physiological- and binding studies, there appear to be at least three subtypes of GLU receptors, tentatively named N-methyl-D-aspartate (NMDA) receptors, quisqualate receptors and kainate receptors. AMPA has been known for several years to be a potent and selective agonist at the traditionally named quisqualate receptors. Activation of quisqualate receptors by AMPA is associated with Na^+influx and K^+efflux leading to depolarisation. ^3H-AMPA is a selective radioligand for labelling the ionotropic quisqualate (AMPA) receptors.
Preparations are performed at 0-4° C. unless otherwise indicated. Cerebral cortex from male Wistar rats (150-200 g) is homogenised for 5-10 sec in 20 ml Tris-HCl (30 mM, pH 7.4) using an Ultra-Turrax™ homogeniser. The suspension is centrifuged at 27,000×g for 15 minutes and the pellet is washed three times with buffer (centrifuged at 27,000×g for 10 minutes). The washed pellet is homogenised in 20 ml of buffer and incubated on a water bath (of 37° C.) for 30 minutes to remove endogenous glutamate and then centrifuged for 10 minutes at 27,000×g. The pellet is then homogenised in buffer and centrifuged at for 10 minutes at 27,000×g. The final pellet is resuspended in 30 ml buffer and the preparation is frozen and stored at −20° C.
The membrane preparation is thawed and centrifuged at 2° C. for 10 minutes at 27,000×g. […] Non-specific binding is determined using L-glutamate (0.6 mM, final concentration).
After incubation the 550 μl samples are added 5 ml of ice-cold buffer and poured directly onto Whatman™ GF/C glass fibre filters under suction and immediately washed with 5 ml of ice-cold buffer. […] The amount of radioactivity on the filters is determined by conventional liquid scintillation counting. […]

Structure (SMILES) | melting point | IC50 [1]
CN1CCc2c(-c3ccc(S(=O)(=O)N(C)C)cc3)cc3c(c2C1)NC(=O)C3=NOC1CCOC1=O (centres unmarked) (as salt: hydrochloride) [8-methyl-5-(4-(N,N-dimethylsulfamoyl)phenyl)-6-7-8-9-tetrahydro-1H-pyrrolo[3,2-h]-isoquinoline-2,3-dione-3-O-(3-(2-oxo)tetrahydrofuryl) oxime, hydrochloride] | 245 °C (dec.) | –
CN1CCc2c(-c3ccc(S(=O)(=O)N(C)C)cc3)cc3c(c2C1)NC(=O)C3=NOC(CCO)C(=O)O (centres unmarked) (as salt: sodium) [8-methyl-5-(4-(N,N-dimethylsulfamoyl)phenyl)-6-7-8-9-tetrahydro-1H-pyrrolo[3,2-h]-isoquinoline-2,3-dione-3-O-(4-hydroxybutyric acid-2-yl)oxime sodium salt] | > 200 °C (dec.) | –
CN1CCc2c(-c3ccc(S(=O)(=O)N(C)C)cc3)cc3c(c2C1)NC(=O)C3=NOC1CCOC1=O (centres unmarked) [8-methyl-5-(4-(N,N-dimethylsulfamoyl)phenyl)-6-7-8-9-tetrahydro-1H-pyrrolo[3,2-h]-isoquinoline-2,3-dione-3-O-(3-(2-oxo)tetrahydrofuryl) oxime, hydrochloride] | – | 150 nM
CN1CCc2c(-c3ccc(S(=O)(=O)N(C)C)cc3)cc3c(c2C1)NC(=O)C3=NOC(CCO)C(=O)O (centres unmarked) [8-methyl-5-(4-(N,N-dimethylsulfamoyl)phenyl)-6-7-8-9-tetrahydro-1H-pyrrolo[3,2-h]-isoquinoline-2,3-dione-3-O-(4-hydroxybutyric acid-2-yl)oxime sodium salt] | – | 50 nM
CCOC(=O)CO/N=C1\C(=O)Nc2c1cc(-c1ccc(S(=O)(=O)N(C)C)cc1)c1c2CN(C)CC1 [8-methyl-5-(4-(N,N-dimethylsulfamoyl)phenyl-6,7,8,9-tetrahydro-1H-pyrrolo [3,2-h]isoquinoline-2,3-dione-3-O-(ethoxycarbonylmethyl) oxime] | – | 100 nM
